{"source": "patent EP0471296B1", "about": "“1-(Pyridinylalkyl)-1H-indoles, indolines and related analogs” (HOECHST-ROUSSEL PHARMACEUTICALS INCORPORATED, priority 1990, dated 1992)", "key": {"[1]": {"target": "T1, Brain Acetylcholinesterase (Rattus norvegicus, UniProt P37136)", "T1 construct": "corpora striata dissected free, weighed and homogenized in 19 volumes; from tissue; host or cells: rat corpora striata homogenate (male Wistar rats)", "T1 sequence (P37136 32-614)": "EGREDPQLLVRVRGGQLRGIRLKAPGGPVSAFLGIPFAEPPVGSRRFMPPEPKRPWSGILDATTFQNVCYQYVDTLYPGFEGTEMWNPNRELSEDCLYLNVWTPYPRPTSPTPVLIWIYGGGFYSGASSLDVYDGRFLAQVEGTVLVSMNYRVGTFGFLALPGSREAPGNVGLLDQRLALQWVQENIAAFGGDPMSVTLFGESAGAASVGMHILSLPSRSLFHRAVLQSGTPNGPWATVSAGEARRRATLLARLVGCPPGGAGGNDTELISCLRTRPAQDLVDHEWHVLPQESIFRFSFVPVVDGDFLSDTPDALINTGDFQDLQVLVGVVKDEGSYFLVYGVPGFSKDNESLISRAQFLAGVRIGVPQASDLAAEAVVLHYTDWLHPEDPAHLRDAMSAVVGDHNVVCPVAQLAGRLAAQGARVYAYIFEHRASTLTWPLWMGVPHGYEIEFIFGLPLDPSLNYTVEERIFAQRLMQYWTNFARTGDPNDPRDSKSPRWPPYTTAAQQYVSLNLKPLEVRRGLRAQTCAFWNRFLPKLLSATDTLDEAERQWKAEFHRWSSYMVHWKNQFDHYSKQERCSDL", "test": "In Vitro Inhibition of Acetylcholinesterase Activity in Rat Striatum (modified Ellman method)", "type": "biochemical", "conditions": "rat striatum homogenate, read-out: % Inhibition @ Dose", "description": "Cholinesterases are found throughout the body, both in the brain and in serum. However, only brain acetylcholinesterase (AChE) distribution is correlated with central cholinergic innervation. […] We have determined in vitro inhibition of acetylcholinesterase activity in rat striatum according to the method described below.\nIn Vitro Inhibition of Acetylcholinesterase Activity in Rat Striatum\nAcetylcholinesterase (AChE), which is sometimes called true or specific cholinesterase, is found in nerve cells, skeletal muscle, smooth muscle, various glands and red blood cells. AChE may be distinguished from other cholinesterases by substrate and inhibitor specificities and by regional distribution.\nIt is generally accepted that the physiological role of AChE is the rapid hydrolysis and inactivation of acetylcholine. […]\n• A. Reagents- • 1. […] If active, IC₅₀ values are determined from the inhibitory activity of subsequent concentrations. • B. Tissue Preparation - Male Wistar rats are decapitated, brains rapidly removed, corpora striata dissected free, weighed and homogenized in 19 volumes (approximately 7 mg protein/ml) of 0.05 M phosphate buffer, pH 7.2, using a Potter-Elvehjem homogenizer. […] Assay Enzyme activity is measured with the Beckman DU-50 spectrophotometer. […] This program also calculates the rate of absorbance change for each cuvette. […]"}, "mice": {"test_system": "mice", "test": "Dark Avoidance Assay (reversal of scopolamine-induced memory deficit)", "type": "in vivo", "conditions": "s.c.", "description": "In this assay mice are tested for their ability to remember an unpleasant stimulus for a period of 24 hours. A mouse is placed in a chamber that contains a dark compartment; a strong incandescent light drives it to the dark compartment, where an electric shock is administered through metal plates on the floor. The animal is removed from the testing apparatus and tested again, 24 hours later, for the ability to remember the electric shock.\nIf scopolamine, an anticholinergic that is known to cause memory impairment, is administered before an animal's initial exposure to the test chamber, the animal re-enters the dark compartment shortly after being placed in the test chamber 24 hours later. This effect of scopolamine is blocked by an active test compound, resulting in a greater interval before re-entry into the dark compartment.\nThe results for an active compound are expressed as the percent of a group of animals in which the effect of scopolamine is blocked, as manifested by an increased interval between being placed in the test chamber and re-entering the dark compartment."}}, "data": [{"smiles": "Oc1ccc2c(ccn2Cc2ccncc2)c1", "note": "[1-(4-pyridinylmethyl)-1H-indol-5-ol, 1-(4-Pyridinylmethyl)-1H-indol-5-ol]", "values": [{"measurement": "inhibition at 100 µM", "setting": "[1]; 100 µM", "result": 24, "unit": "%"}]}, {"smiles": "c1ccc2c(c1)ccn2Cc1ccncc1", "note": "[1-(4-pyridinylmethyl)-1H-indole, 1-(4-Pyridinylmethyl)-1H-indole]", "values": [{"measurement": "% of Animals with Scopolamine-Induced Memory Deficit Reversal", "setting": "mice; dose 0.3 mg/kg of body weight", "result": 33, "unit": "%"}, {"measurement": "% of Animals with Scopolamine-Induced Memory Deficit Reversal", "setting": "mice; dose 1.0 mg/kg of body weight", "result": 20, "unit": "%"}]}, {"smiles": "CCCC(c1ccncc1)n1ccc2ccccc21", "note": "(stereo not shown) [1-[1-(4-pyridinyl)-butyl]-1H-indole, 1-[1-(4-Pyridinyl)butyl]-1H-indole]", "values": [{"measurement": "% of Animals with Scopolamine-Induced Memory Deficit Reversal", "setting": "mice; dose 0.3 mg/kg of body weight", "result": 20, "unit": "%"}]}, {"smiles": "CN1CCC2(C)c3cc(O)ccc3N(C)C12", "note": "(stereo not shown) [Eseroline]", "values": [{"measurement": "inhibition at 6.4 µM", "setting": "[1]; 6.4 µM", "result": 50, "unit": "%"}]}, {"smiles": "CC[C@@H]1C(=O)OC[C@@H]1Cc1cncn1C", "note": "[Pilocarpine]", "values": [{"measurement": "% of Animals with Scopolamine-Induced Memory Deficit Reversal", "setting": "mice; dose 5.0 mg/kg of body weight", "result": 13, "unit": "%"}]}, {"smiles": "Nc1c2c(nc3ccccc13)CCCC2", "note": "[Tacrine]", "values": [{"measurement": "% of Animals with Scopolamine-Induced Memory Deficit Reversal", "setting": "mice; dose 0.63 mg/kg of body weight", "result": 13, "unit": "%"}]}]}
